# Measurements reported in publication PMC10180076, “Novel Biologically Active N-Substituted Benzimidazole Derived Schiff Bases: Design, Synthesis, and Biological Evaluation” (Molecules, 2023).
# Read-outs that look alike come from different tables or passages of the source.
# Columns and labels:
# [1] = system: human coronavirus HCoV-229E; test: organism not typed; type: cell-based; conditions: HEL 299 cells, 100 CCID50, MTS; read-out: Antiviral Activity (EC50/μM) HCoV 229E HEL 299
# [2] = in vitro; conditions: human
# [3] = system: influenza B (B/Ned/537/05); test: Antiviral CPE reduction assay, influenza B in MDCK; type: cell-based; conditions: Influenza B virus; MDCK cells, 100 CCID50, MTS
# [4] = system: Zika virus (Mr776); test: Antiviral CPE reduction assay, Zika virus in Huh-7; type: cell-based; conditions: Huh-7 cells, 100 CCID50, MTS
# [5] = system: human coronavirus HCoV-OC43; test: microbe, parasite or virus in culture; type: cell-based; conditions: Betacoronavirus 1, OC43; HEL 299 cells, 100 CCID50, MTS; read-out: Antiviral Activity (EC50/μM) HCoV OC43 HEL 299
# [6] = system: influenza A/H3N2 (A/HK/7/87); test: Antiviral CPE reduction assay, influenza A/H3N2 in MDCK; type: cell-based; conditions: Influenza A virus, MDCK cells, 100 CCID50, MTS
# [7] = system: influenza A/H1N1 (A/Ned/378/05); test: Antiviral CPE reduction assay, influenza A/H1N1 in MDCK; type: cell-based; conditions: Influenza A virus, MDCK cells, 100 CCID50, MTS
# [8] = system: human coronavirus HCoV-NL63; test: Antiviral CPE reduction assay, HCoV-NL63 in Huh-7; type: cell-based; conditions: Huh-7 cells, 100 CCID50, MTS
# [9] = in vitro; conditions: human; remark: listed apart in the source
# [10] = in vitro; conditions: dog
# [11] = system: herpes simplex virus-1 (HSV-1 KOS); test: Antiviral CPE reduction assay, HSV-1 KOS in HEL 299; type: cell-based; conditions: Human alphaherpesvirus 1; HEL 299 cells, 100 CCID50, MTS
# [12] = system: respiratory syncytial virus A (Long); test: Antiviral CPE reduction assay, RSV A in HEL 299; type: cell-based; conditions: human respiratory syncytial virus; HEL 299 cells, 100 CCID50, MTS
# [13] = system: yellow fever virus (YFV 17D); test: microbe, parasite or virus in culture; type: cell-based; conditions: Huh-7, read-out: Antiviral Activity (EC50/μM) YFV 17D Huh-7
# [14] = system: sindbis virus; test: Antiviral CPE reduction assay, Sindbis virus in Huh-7; type: cell-based; conditions: Huh-7 cells, 100 CCID50, MTS
# [15] = system: LN-229, glioblastoma; test: Proliferation assay (MTS, 72 h), LN-229; type: cell-based, human
# From the text: (§1) Human cancer cells used in this manuscript, namely Capan-1, HCT-116, NCI-H460, LN-229, HL-60, K-562, and Z-138, were acquired from the American Type Culture Collection (ATCC, Manassas, VA, USA), while the DND-41 cell line was purchased from the Deutsche Sammlung von Mikroorganismen und Zellkulturen (DSMZ Leibniz-Institut, Braunschweig, Germany). Culture media were purchased from Gibco Life Technologies, Merelbeke, Belgium, and supplemented with 10% fetal bovine serum (HyClone, Cytiva, Marlborough, MA, USA). Vincristine and docetaxel, which were used as the reference inhibitors, were purchased from Selleckchem (Munich, Germany). Stock solutions were prepared in DMSO.
# (§2) Adherent cell lines LN-229, HCT-116, and NCI-H460 and Capan-1 cells were seeded at a density between 500 and 1500 cells per well, in 384-well tissue culture plates (Greiner, Kremsmünster, Austria). After overnight incubation, the cells were treated with seven different concentrations of the test compounds, ranging from 100 to 0.006 µM.
# (§3) Suspension cell lines HL-60, K-562, Z-138, and DND-41 were seeded at densities ranging from 2500 to 5500 cells per well in 384-well culture plates containing the test compounds at the same concentration points. The cells were incubated for 72 h with the compounds and were then analyzed using the CellTiter 96® AQueous One Solution Cell Proliferation Assay (MTS) reagent (Promega, Madison, WI, USA) according to the manufacturer’s instructions. […] The compounds were tested in two independent experiments.
# [16] = system: HCT-116, colorectal carcinoma; test: Proliferation assay (MTS, 72 h), HCT-116; type: cell-based, human
# From the text: as §1, §2, §3
# [17] = system: HL-60, acute myeloid leukemia; test: Proliferation assay (MTS, 72 h), HL-60; type: cell-based, human
# From the text: as §1, §2, §3
# [18] = system: K-562, chronic myeloid leukemia; test: Proliferation assay (MTS, 72 h), K-562; type: cell-based, human
# From the text: as §1, §2, §3
# [19] = system: NCI-H460, lung carcinoma; test: Proliferation assay (MTS, 72 h), NCI-H460; type: cell-based, human
# From the text: as §1, §2, §3
# [20] = system: Z-138, non-Hodgkin lymphoma; test: Proliferation assay (MTS, 72 h), Z-138; type: cell-based, human
# From the text: as §1, §2, §3
# [21] = system: DND-41, acute lymphoblastic leukemia; test: Proliferation assay (MTS, 72 h), DND-41; type: cell-based, human
# From the text: as §1, §2, §3
# [22] = system: Capan-1, pancreatic adenocarcinoma; test: Proliferation assay (MTS, 72 h), Capan-1; type: cell-based, human
# From the text: as §1, §2, §3
Molecule,"IC50 ([15]; Homo sapiens, LN-229)","IC50 ([16]; Homo sapiens, HCT-116)","IC50 ([17]; Homo sapiens, HL-60)",melting point,"IC50 ([18]; Homo sapiens, K562)","IC50 ([19]; Homo sapiens, NCI-H460)","IC50 ([20]; Homo sapiens, Z-138)","IC50 ([21]; Homo sapiens, DND41)","IC50 ([22]; Homo sapiens, CAPAN-1)",also measured
"Cn1c(N)nc2ccc(C#N)cc21 [Compound 22, 2-amino-6-cyano-1-methylbenzimidazole]",,,,,,,,,,EC50 [1]: > 100 µM; CC50 [2]: > 100 µM; EC50 [3]: > 100 µM; EC50 [4]: 46.4 µM; EC50 [5]: > 100 µM; EC50 [6]: > 100 µM; EC50 [7]: > 100 µM; EC50 [8]: > 100 µM; CC50 [9]: > 100 µM; CC50 [10]: > 100 µM; EC50 [11]: > 100 µM; EC50 [12]: 78.7 µM; EC50 [13]: > 100 µM; EC50 [14]: > 100 µM
"CC(C)Cn1c(/N=C/c2ccc(N(C)C)cc2)nc2ccccc21 [Compound 28, (E)-4-(((1-Isobutyl-1H-benzo[d]imidazol-2-yl)imino)methyl)-N,N-dimethylaniline]",> 100 µM,15.2 µM,> 100 µM,277 to 279 °C,> 100 µM,> 100 µM,> 100 µM,> 100 µM,> 100 µM,
"CCCCCCn1c(N)nc2ccc(C#N)cc21 [Compound 24, 2-Amino-6-cyano-1-hexylbenzimidazole]",,,,215 to 220 °C,,,,,,
"COc1cc([C@@H]2c3cc4c(cc3[C@@H](O[C@@H]3O[C@@H]5CO[C@@H](C)O[C@H]5[C@H](O)[C@H]3O)[C@H]3COC(=O)[C@H]23)OCO4)cc(OC)c1O [ETP, etoposide, reference compound]",2.4 µM,1.45 µM,0.42 µM,,1.77 µM,3.65 µM,0.85 µM,2.8 µM,0.43 µM,
"CN(C)c1ccc(/C=N/c2nc3ccc(C#N)cc3n2-c2ccccc2)cc1 [Compound 39, (E)-2-((4-(Dimethylamino)benzylidene)amino)-1-phenyl-1H-benzo[d]imidazole-6-carbonitrile]",> 100 µM,> 100 µM,> 100 µM,247 to 251 °C,> 100 µM,> 100 µM,> 100 µM,> 100 µM,> 100 µM,
"CCCCCCn1c(/N=C/c2ccc(N(CC)CC)cc2O)nc2ccccc21 [Compound 44, (E)-5-(Diethylamino)-2-(((1-hexyl-1H-benzo[d]imidazol-2-yl)imino)methyl)phenol]",> 100 µM,> 100 µM,83.9 µM,201 to 204 °C,> 100 µM,> 100 µM,> 100 µM,> 100 µM,> 100 µM,
"CCCCCCn1c(/N=C/c2ccc(N(C)C)cc2)nc2ccc(C#N)cc21 [Compound 43, (E)-2-((4-(Dimethylamino)benzylidene)amino)-1-hexyl-1H-benzo[d]imidazole-6-carbonitrile]",> 100 µM,> 100 µM,33.5 µM,165 to 170 °C,> 100 µM,91.6 µM,> 100 µM,> 100 µM,> 100 µM,
"CCC(CC)COC(=O)[C@H](C)N[P@](=O)(OC[C@H]1O[C@@](C#N)(c2ccc3c(N)ncnn23)[C@H](O)[C@@H]1O)Oc1ccccc1 [Remdesivir, remdesivir, reference compound]",,,,,,,,,,EC50 [1]: 0.06 µM; CC50 [2]: > 10 µM; EC50 [4]: 0.7 µM; EC50 [5]: 0.06 µM; EC50 [8]: 0.03 µM; CC50 [9]: > 10 µM; EC50 [12]: 0.03 µM; EC50 [13]: 6.2 µM; EC50 [14]: > 10 µM
"NC(=O)c1ncn([C@@H]2O[C@H](CO)[C@@H](O)[C@H]2O)n1 [Ribavirin, ribavirin, reference compound]",,,,,,,,,,EC50 [1]: 82.6 µM; EC50 [3]: 2.8 µM; EC50 [4]: > 250 µM; EC50 [6]: 4 µM; EC50 [7]: 10.5 µM; EC50 [8]: > 250 µM; CC50 [10]: 67 µM; EC50 [12]: 10.8 µM; EC50 [13]: > 250 µM; EC50 [14]: 148 µM
2-amino-1-phenylbenzimidazole [Compound 19],,,,,,,,,,IC50 [15]: > 100 µM; IC50 [16]: > 100 µM; IC50 [17]: > 100 µM; IC50 [18]: > 100 µM; IC50 [19]: > 100 µM; IC50 [20]: > 100 µM; IC50 [21]: 98.3 µM; IC50 [22]: > 100 µM
2-amino-6-cyano-1-isobutylbenzimidazole [Compound 21],,,,,,,,,,IC50 [15]: > 100 µM; IC50 [16]: > 100 µM; IC50 [17]: > 100 µM; IC50 [18]: > 100 µM; IC50 [19]: 69.2 µM; IC50 [20]: > 100 µM; IC50 [21]: > 100 µM; IC50 [22]: > 100 µM
"CCCCCCn1c(/N=C/c2ccc(N(CC)CC)cc2O)nc2ccc(C#N)cc21 [Compound 45, (E)-2-((4-(Diethylamino)-2-hydroxybenzylidene)amino)-1-hexyl-1H-benzo[d]imidazole-6-carbonitrile]",> 100 µM,> 100 µM,> 100 µM,,> 100 µM,> 100 µM,> 100 µM,> 100 µM,> 100 µM,
"CN(C)c1ccc(/C=N/c2nc3ccccc3n2C)cc1 [Compound 33, (E)-N,N-Dimethyl-4-(((1-methyl-1H-benzo[d]imidazol-2-yl)imino)methyl)aniline]",> 100 µM,> 100 µM,> 100 µM,186 to 188 °C,> 100 µM,> 100 µM,> 100 µM,> 100 µM,> 100 µM,
"COC(=O)Nc1nc2ccc(C(=O)c3cccs3)cc2[nH]1 [NZO, nocodazole, reference compound]",0.29 µM,0.13 µM,0.1 µM,,0.07 µM,0.25 µM,0.31 µM,0.47 µM,0.1 µM,
"CCN(CC)c1ccc(/C=N/c2nc3ccccc3n2C)c(O)c1 [Compound 35, (E)-5-(Diethylamino)-2-(((1-methyl-1H-benzo[d]imidazol-2-yl)imino)methyl)phenol]",> 100 µM,> 100 µM,> 100 µM,,> 100 µM,> 100 µM,> 100 µM,> 100 µM,> 100 µM,
"CCN(CC)c1ccc(/C=N/c2nc3ccccc3n2CC(C)C)c(O)c1 [Compound 30, (E)-5-(Diethylamino)-2-(((1-isobutyl-1H-benzo[d]imidazol-2-yl)imino)methyl)phenol]",> 100 µM,> 100 µM,70.4 µM,,> 100 µM,> 100 µM,> 100 µM,> 100 µM,> 100 µM,
"CC(=O)N[C@H]1[C@H]([C@H](O)[C@H](O)CO)OC(C(=O)O)=C[C@@H]1N=C(N)N [Zanamivir, zanamivir, reference compound]",,,,,,,,,,EC50 [3]: 0.05 µM; EC50 [6]: 16.8 µM; EC50 [7]: 0.1 µM; CC50 [10]: > 100 µM
"O=c1[nH]c(=O)n([C@H]2C[C@H](O)[C@@H](CO)O2)cc1/C=C/Br [BVDU, brivudine, reference compound]",,,,,,,,,,CC50 [2]: > 100 µM; EC50 [11]: 0.05 µM
"CCCCCCn1c(N)nc2ccccc21 [Compound 20, 2-amino-1-hexylbenzimidazole]",,,,245 to 250 °C,,,,,,
"CC(N)C12CC3CC(CC(C3)C1)C2 (centres unmarked) [Rimantadine, rimantadine, reference compound]",,,,,,,,,,EC50 [3]: > 100 µM; EC50 [6]: 0.05 µM; EC50 [7]: 5 µM; CC50 [10]: > 100 µM
